Experimental data taken from US7897834B2, “Mutation in the rat adenomatous polyposis coli gene within the human mutation hotspot region” (Wisconsin Alumni Research Foundation, priority 2005, dated 2011).

Experiments:
[1] = system: intestinal tumors in F344 Pirc rats; experiment: Effect of celecoxib on intestinal tumor multiplicity in F344 Pirc rats (screening for carcinogenesis inhibitory activity); type: in vivo, rat; conditions: for Average number of tumors in large intestine / Average number of tumors in small intestine / Average total number of tumors: celecoxib 1200 ppm diet from about 40 days of age, necropsy at about 22 weeks, n=9
Experimental: Shown in Table 5 is an example of the use of a Pirc rat for screening a compound for carcinogenesis inhibitory activity. The effect of celecoxib on intestinal tumor multiplicity in F344 Pirc rats was tested. At about 40 days of age, Pirc rats backcrossed with F344-Tac and F334 control rats were fed celecoxib at 1200 ppm diet. The rats were killed at about 22 weeks of age (about 150-160 days of age). Necropsy was performed to identify 1-2 mm tumors in the intestines.

[2] = system: intestinal tumors in F344-Pirc rats; experiment: Tumor multiplicities in F344-Pirc rats after somatic ENU treatment; type: in vivo, rat; conditions: ENU treated, male, age 7 mo
Experimental: Somatic ENU treatment. ENU was dissolved in 95% EtOH and measured with a spectrophotometer at […] to obtain a final concentration of 1 mg/ml. Either the ENU solution or 95% EtOH was injected intraperitoneally into 13-20 day old rats at 18 or 40 mg/kg of body mass. Treated animals were isolated in a laminar flow hood for at least three days before being returned to normal housing.
Tumor multiplicities were determined for both adenomas and microadenomas (neoplasms less than 0.5 mm in diameter). A significant dependence on gender was observed, with males developing more of both types of tumor in all regions of the intestinal tract. There was also a monotonic increase in tumor multiplicity with age, reaching an average of 14 colonic adenomas in males and 9 in females over eight months of age (Tables 3 and 4).
Shown in Table 3 are the tumor multiplicities in Pirc rats. Colonic microadenoma multiplicities could not be accurately measured without histopathological confirmation and were excluded from these analyses. Neoplasms less than 0.5 mm in size were classified as microadenomas.

[3] = Female Pirc rat, celecoxib 1200 ppm diet vs control diet
[4] = Male Pirc rat, celecoxib 1200 ppm diet vs control diet
[5] = N=3, ENU intraperitoneally at 18 or 40 mg/kg in 13-20 day old rats

Row | SMILES | Average number of tumors in large intestine ([1]; Female Pirc rat) | Average number of tumors in small intestine ([1]; Female Pirc rat) | Average total number of tumors ([1]; Female Pirc rat) | Relative reduction in number of tumors (large intestine) [1, 3] [%] | Relative reduction in number of tumors (total) [1, 3] [%] | Average number of tumors in large intestine ([1]; Male Pirc rat) | Average number of tumors in small intestine ([1]; Male Pirc rat) | Average total number of tumors ([1]; Male Pirc rat) | Relative reduction in number of tumors (large intestine) [1, 4] [%] | Relative reduction in number of tumors (small intestine) [1, 4] [%] | Relative reduction in number of tumors (total) [1, 4] [%] | Colonic polyps, mean ± SD [2, 5] | Lesions in small intestine, mean ± SD: Adenomas [2, 5] | Lesions in small intestine, mean ± SD: Microadenomas ([2]; N=3, neoplasms less than 0.5 mm)
1 | Cc1ccc(-c2cc(C(F)(F)F)nn2-c2ccc(S(N)(=O)=O)cc2)cc1 [Celecoxib, celecoxib] | 0.1 | 0.9 | 1.0 | 93 | 50 | 1.2 | 1.3 | 2.6 | 61 | 82 | 76 |  |  | 
2 | CCN(N=O)C(N)=O [ENU, N-ethyl-N-nitrosourea] |  |  |  |  |  |  |  |  |  |  |  | 79 ± 11 | 57 ± 13 | 665 ± 103
